Assay results published in ChEMBL document CHEMBL3351441, “The effect of pK(a) on pyrimidine/pyridine-derived histamine H4 ligands” (Bioorg Med Chem Lett, 2014).

Assays:
[1] = Dissociation constant, pKa of the compound by Analiza PRO analyzer based method; type: physicochemical
[2] = molecular target: Histamine H4 receptor (Homo sapiens, UniProt Q9H3N8); experiment: Displacement of [3H]histamine from human recombinant histamine H4 receptor
[3] = Dissociation constant, pKa of the compound by potentiometric titration; type: physicochemical

Chain of Histamine H4 receptor (Q9H3N8 whole entry): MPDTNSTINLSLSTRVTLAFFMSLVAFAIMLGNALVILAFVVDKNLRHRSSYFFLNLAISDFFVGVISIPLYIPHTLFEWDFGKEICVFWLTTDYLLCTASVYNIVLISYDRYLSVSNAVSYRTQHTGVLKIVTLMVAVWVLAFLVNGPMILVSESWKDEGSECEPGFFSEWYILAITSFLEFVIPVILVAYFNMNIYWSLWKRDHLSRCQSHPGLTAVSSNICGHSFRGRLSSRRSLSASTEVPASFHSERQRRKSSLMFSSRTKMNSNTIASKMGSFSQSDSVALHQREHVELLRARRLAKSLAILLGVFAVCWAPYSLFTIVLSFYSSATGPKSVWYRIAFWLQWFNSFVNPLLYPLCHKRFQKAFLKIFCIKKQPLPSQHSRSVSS

| Compound | pKa [1] | Ki [2] [µM] | pKa [3] |
| --- | --- | --- | --- |
| CN[C@@H]1CCN(c2cc(CCC(F)(F)F)nc(N)n2)C1 | 7.8 |  |  |
| Nc1cc(C2CCNCC2)cc(OC2CCCC2)n1 | 4.7 | > 10 |  |
| Nc1nc(C2CCCC2)cc(C2CCNCC2)n1 | 4.5 | 1.55 |  |
| Nc1cc(C2CCNCC2)cc(NC2CCCC2)n1 | 6.1 | 0.05 |  |
| CCc1cc(N2CC[C@@H](NC)C2)nc(N)n1 | 6.3 |  | 7.5 |
| CCc1cc(N2CC[C@@H](NC)C2)ncn1 |  | 0.456 | 5.9 |
| CN[C@@H]1CCN(c2cc(CF)nc(N)n2)C1 | 5.5 | 0.126 |  |
| Nc1cc(N2CCNCC2)cc(NC2CCCC2)n1 | 6.5 | 0.002 |  |
| CN[C@@H]1CCN(c2cc(C(F)(F)F)nc(N)n2)C1 | 3.1 | > 10 | 3.1 |
| Nc1nc(C2CCCC2)cc(N2CCNCC2)n1 | 7.9 |  |  |
| CN[C@@H]1CCN(c2ccnc(NC(C)C)n2)C1 | 6.4 |  |  |
| CN[C@@H]1CCN(c2cc(N)nc(C(C)C)n2)C1 | 6.3 | 0.32 |  |
| CN[C@@H]1CCN(c2cc(CCl)nc(N)n2)C1 | 6 | 0.092 |  |
| CN[C@@H]1CCN(c2cc(C(F)F)nc(N)n2)C1 | 4.4 | > 10 |  |
| CN[C@@H]1CCN(c2ccnc(C(C)C)n2)C1 | 6.5 | 0.46 |  |
| CN[C@@H]1CCN(c2ccnc(NC(C)C)c2)C1 | 6.6 |  |  |
| Nc1nc(NC2CCCC2)cc(C2CCNCC2)n1 | 6.1 | > 1 |  |
| CN[C@@H]1CCN(c2cc(N)nc(NC(C)C)c2)C1 | 6.5 | 0.0031 |  |
| CN[C@@H]1CCN(c2cc(N)nc(NC(C)C)n2)C1 | 6.3 |  |  |
| CN[C@@H]1CCN(c2cc(CC(F)(F)F)nc(N)n2)C1 | 5.4 | 0.011 |  |
